Laboratory results reported in PubChem BioAssay (NCI).
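Five concentrations, 48 hours, 96-well plates. Here, GI50 denotes the concentration required for 50% inhibition of growth. TGI denotes the concentration required for complete inhibition of growth.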

Experiments:
Test in all cases: inhibition of tumour cell growth, NCI panel, 48 h
[1] = test system: M14 melanoma
[2] = test system: ACHN renal
[3] = test system: CCRF-CEM leukemia
[4] = test system: OVCAR-4 ovarian
[5] = test system: SK-MEL-2 melanoma
[6] = test system: K-562 leukemia
[7] = test system: SW-620 colon
[8] = test system: CAKI-1 renal
[9] = test system: SF-539 CNS

| SMILES | TGI [1] | TGI [2] | TGI [3] | TGI [4] | TGI [5] | TGI [6] | TGI [7] | TGI [8] | TGI [9] | GI50 [1] | GI50 [2] | GI50 [3] | GI50 [4] | GI50 [5] | GI50 [6] | GI50 [7] | GI50 [8] | GI50 [9] |
| --- | --- | --- | --- | --- | --- | --- | --- | --- | --- | --- | --- | --- | --- | --- | --- | --- | --- | --- |
| Cc1cc(=O)oc2cc(OCc3nc4ccccc4c(=O)[nH]3)ccc12 | > 100 µM | > 100 µM | > 100 µM | > 100 µM | > 100 µM | > 100 µM | > 100 µM | > 100 µM | > 100 µM | – | – | – | – | – | – | – | – | – |
| Cc1ccc(/C=C2\CCCC\C2=N\O)cc1 | > 100 µM | > 100 µM | > 100 µM | > 100 µM | – | > 100 µM | > 100 µM | > 100 µM | > 100 µM | – | – | – | – | – | – | – | – | – |
| O=C1CCCC1NC(=O)C(F)(F)F (stereo not drawn) | > 100 µM | > 100 µM | > 100 µM | > 100 µM | > 100 µM | > 100 µM | > 100 µM | > 100 µM | > 100 µM | – | – | – | – | – | – | – | – | – |
| C/C(=C\CC[C@]1(C)OC(C)(C)OC1CC/C(C)=C/CO[Si](c1ccccc1)(c1ccccc1)C(C)(C)C)CC/C=C/CO[Si](C)(C)C(C)(C)C (stereo partly drawn) | > 100 µM | > 100 µM | > 100 µM | > 100 µM | > 100 µM | > 100 µM | > 100 µM | > 100 µM | > 100 µM | – | – | – | – | – | – | – | – | – |
| C[CH2][Sn]([Cl])([Cl])[CH2]C | 57.7 µM | 58.5 µM | 39.9 µM | > 100 µM | 37.4 µM | > 69 µM | 39.8 µM | 25.8 µM | > 100 µM | 24.1 µM | 24.1 µM | 9.5 µM | > 100 µM | 17 µM | 18.6 µM | 20.8 µM | 8.91 µM | 40.1 µM |
| CC1=NN(C(=O)c2ccc(Cl)cc2)C(=O)/C1=C/c1ccc(O)cc1 | > 100 µM | > 100 µM | > 100 µM | > 100 µM | > 100 µM | > 100 µM | > 100 µM | > 100 µM | > 100 µM | – | – | – | – | – | – | – | – | – |
| COc1ccc2c(c1)CC1c3c(cc4c(c3-2)OCO4)CCN1C (stereo not drawn) | 62.9 µM | 36.1 µM | > 100 µM | 52.2 µM | 72.3 µM | > 100 µM | 59.8 µM | 60.2 µM | > 100 µM | – | – | – | – | – | – | – | – | – |
| C=CCCCCCC(O)C(O)C/C=C\C/C=C\CC (stereo not drawn) | > 18.8 µM | > 18.8 µM | > 18.8 µM | > 18.8 µM | > 18.8 µM | > 18.8 µM | > 18.8 µM | > 18.8 µM | > 18.8 µM | – | – | – | – | – | – | – | – | – |
| C=C(C)[C@H](O)C(O)CC(C)[C@@H]1CCC23CC12CCC1[C@@]2(C)CCC(OC(C)=O)C(C)(C)C2CC(OC2OC(COC(C)=O)C(O)C(O)C2O)[C@]13C (stereo partly drawn) | 9.11 µM | 12.6 µM | 9.7 µM | 14 µM | 16.2 µM | 10.8 µM | 12 µM | 12.1 µM | 12.8 µM | – | – | – | – | – | – | – | – | – |
| CC12CC3CC(C1)CC(N=[N+]=[N-])(C3)C2 | > 100 µM | > 100 µM | > 100 µM | > 100 µM | > 100 µM | > 100 µM | > 100 µM | > 100 µM | > 100 µM | – | – | – | – | – | – | – | – | – |
| N#CC(C#N)=C1SCC(=O)CS1 | > 100 µM | – | > 100 µM | > 100 µM | – | > 100 µM | > 100 µM | > 100 µM | > 100 µM | – | – | – | – | – | – | – | – | – |
| CCOC(=O)NC(=O)c1cn(CCN2CCN(C(=O)NCCCCCCNC(=O)N3CCN(CCn4cc(C(=O)NC(=O)OCC)c(=O)n(CCN(CC)CC)c4=O)CC3)CC2)c(=O)n(CCC(CC)CC)c1=O | > 100 µM | > 100 µM | – | > 100 µM | > 100 µM | > 100 µM | > 100 µM | – | > 100 µM | – | – | – | – | – | – | – | – | – |
| N#CN1CCC=C(c2cc3ccccc3[nH]2)C1 | – | > 448 µM | > 448 µM | – | > 448 µM | > 448 µM | > 448 µM | > 448 µM | > 448 µM | – | – | – | – | – | – | – | – | – |
| COc1ccccc1/C=N/N=C(\N)NO | – | > 100 µM | > 100 µM | > 100 µM | > 100 µM | > 100 µM | > 100 µM | > 100 µM | 9.4 µM | – | – | – | – | – | – | – | – | – |
| COc1cc([C@@H]2OC(=O)C3C2C(=O)O[C@H]3c2cc(OC)c(OC)c(OC)c2)cc(OC)c1OC (stereo partly drawn) | > 100 µM | > 100 µM | > 100 µM | > 100 µM | > 100 µM | > 100 µM | > 100 µM | – | > 100 µM | – | – | – | – | – | – | – | – | – |
| Clc1ccc(SCCCCCCCCCCSc2ccc(Cl)cc2)cc1 | > 100 µM | > 73.5 µM | > 100 µM | > 100 µM | > 70.4 µM | > 100 µM | 70.9 µM | > 100 µM | > 100 µM | – | – | – | – | – | – | – | – | – |
| C[CH2][Sn]([CH2]C)([O]C(=O)c1cccc(F)c1)[O][Sn]([CH2]C)([CH2]C)[O]C(=O)c1cccc(F)c1 | 31.3 µM | 32.7 µM | 34.7 µM | 46.7 µM | 30.3 µM | 93.4 µM | 30.9 µM | 24.1 µM | 30.9 µM | 16.9 µM | 18.7 µM | 4.28 µM | 22.8 µM | 16.4 µM | 18 µM | 17.2 µM | 11.7 µM | 17 µM |

| SMILES | TGI [1] | TGI [2] | TGI [3] | TGI [4] | TGI [5] | TGI [6] | TGI [7] | TGI [8] | TGI [9] | GI50 [1] | GI50 [2] | GI50 [3] | GI50 [4] | GI50 [5] | GI50 [6] | GI50 [7] | GI50 [8] | GI50 [9] |
| --- | --- | --- | --- | --- | --- | --- | --- | --- | --- | --- | --- | --- | --- | --- | --- | --- | --- | --- |
| O=C1C[C@H]2CC3(CC[C@H]2CN1)OCCO3 | > 100 µM | – | > 100 µM | > 100 µM | > 100 µM | > 100 µM | > 100 µM | > 100 µM | > 100 µM | – | – | – | – | – | – | – | – | – |
| COc1cc(C(=O)CC2(O)C(=O)Nc3c(Cl)cc(Cl)cc32)ccc1O (stereo not drawn) | > 100 µM | > 100 µM | > 100 µM | > 100 µM | > 100 µM | > 100 µM | > 100 µM | > 100 µM | – | – | – | – | – | – | – | – | – | – |
| c1ccc(SC(CCCCOC2CCCCO2)Sc2ccccc2)cc1 (stereo not drawn) | > 100 µM | > 100 µM | 93.1 µM | > 100 µM | > 100 µM | > 100 µM | > 100 µM | > 100 µM | > 100 µM | – | – | – | – | – | – | – | – | – |
| Cc1ccc(S(=O)(=O)c2c3[nH]c4ccccc4nc3n3c2nc2ccccc23)cc1 | > 100 µM | > 100 µM | > 100 µM | > 100 µM | > 100 µM | > 100 µM | > 100 µM | > 100 µM | > 100 µM | – | – | – | – | – | – | – | – | – |
| Cn1c(=O)c(C(=O)NC(=O)OCc2ccccc2)cn(CCSCCOC(=O)NCCCCCCNC(=O)OCCSCCn2cc(C(=O)NC(=O)OCc3ccccc3)c(=O)n(C)c2=O)c1=O | > 100 µM | > 100 µM | > 100 µM | > 100 µM | > 100 µM | > 100 µM | > 100 µM | – | > 100 µM | – | – | – | – | – | – | – | – | – |
| O=C(N/C(=C\c1ccc(Oc2ccc(Cl)c(Cl)c2)cc1)c1nc2ccccc2[nH]1)c1ccccc1 | 34.8 µM | 50.9 µM | 88.5 µM | 54.2 µM | 37.7 µM | 59.6 µM | 33.7 µM | 47.9 µM | 32.7 µM | – | – | – | – | – | – | – | – | – |
| Cc1ccc(N2C(=O)/C(=C/c3ccc(N(CCC#N)CCC#N)cc3C)N=C2c2cc([N+](=O)[O-])ccc2Cl)cc1 | > 100 µM | > 100 µM | > 100 µM | > 100 µM | > 100 µM | > 100 µM | > 100 µM | > 100 µM | > 100 µM | – | – | – | – | – | – | – | – | – |
| Cc1cccc2c1C/C(=C1\CCc3c(C)cccc31)C2=O | > 100 µM | > 100 µM | > 100 µM | > 100 µM | > 100 µM | > 100 µM | > 100 µM | > 100 µM | – | – | – | – | – | – | – | – | – | – |
| CC(C)(c1ccc(OC#N)cc1)c1ccc(OC#N)cc1 | > 100 µM | > 100 µM | > 73.7 µM | > 100 µM | > 100 µM | > 100 µM | > 100 µM | > 100 µM | > 100 µM | – | – | – | – | – | – | – | – | – |
| CS/C(c1ccccc1)=[N+](/C)[O-] | > 100 µM | > 100 µM | > 81.8 µM | > 100 µM | > 100 µM | > 100 µM | > 100 µM | > 100 µM | > 100 µM | – | – | – | – | – | – | – | – | – |
| CC1=Nn2c(nnc2-c2ccc(N)cc2)NC(C)(C)C1 | > 100 µM | > 100 µM | > 100 µM | > 100 µM | > 100 µM | > 100 µM | > 100 µM | > 100 µM | > 100 µM | – | – | – | – | – | – | – | – | – |
| NC(CCSC(F)F)C(=O)O (stereo not drawn) | > 100 µM | > 100 µM | > 100 µM | > 100 µM | > 100 µM | > 100 µM | > 100 µM | > 100 µM | > 100 µM | – | – | – | – | – | – | – | – | – |
| COc1cc(/C=C2/C(=O)NC(Cc3cc(OC)c(OC)c(C)c3OC)C(=O)N2Cc2ccccc2)c(OC)c(C)c1OC (stereo not drawn) | > 100 µM | > 100 µM | > 100 µM | > 100 µM | 66.8 µM | > 100 µM | > 100 µM | > 100 µM | > 100 µM | – | – | – | – | – | – | – | – | – |
| Cc1cccc2c1C(=O)OC2(C)c1cccc2ccccc12 (stereo not drawn) | 40.7 µM | > 100 µM | 80.4 µM | 67.4 µM | > 100 µM | > 100 µM | > 100 µM | > 100 µM | – | – | – | – | – | – | – | – | – | – |
| O=C(/C=C1/NC(=O)CS1)Nc1ccccc1 | > 100 µM | – | > 100 µM | > 100 µM | > 100 µM | > 100 µM | > 100 µM | > 100 µM | > 100 µM | – | – | – | – | – | – | – | – | – |
| O=C1c2c(nc3ccccc3c2-c2ccccc2)CN1Nc1ccccc1 | > 100 µM | – | > 100 µM | > 100 µM | > 100 µM | > 100 µM | > 100 µM | > 100 µM | – | – | – | – | – | – | – | – | – | – |
